Experimental findings from US11518750B2, “3-methylideneoxan-4-one compounds and substituted derivatives thereof as inhibitors of telomerase” (NORTHWESTERN UNIVERSITY, priority 2019, dated 2022) are described below.

Data set [1] in a line: Schiff-base measurement with glycine. Format: physicochemical. To be noted: incubation with glycine. The procedure:
Schiff-Base Measurement. A 1 mM stock solution of NU-1 in DMSO-d6 was added to a solution of 5 mM solution of glycine in D2O in an NMR tube. The mixture was analyzed by ^1H NMR over 48 hours to analyze formation of Schiff-bases with the ketone of NU-1.

The target in the next data set is T1, CYP1A2 (Homo sapiens, UniProt P05177).
T1 construct: purchased Thermo Fisher
T1 sequence (P05177 1-516): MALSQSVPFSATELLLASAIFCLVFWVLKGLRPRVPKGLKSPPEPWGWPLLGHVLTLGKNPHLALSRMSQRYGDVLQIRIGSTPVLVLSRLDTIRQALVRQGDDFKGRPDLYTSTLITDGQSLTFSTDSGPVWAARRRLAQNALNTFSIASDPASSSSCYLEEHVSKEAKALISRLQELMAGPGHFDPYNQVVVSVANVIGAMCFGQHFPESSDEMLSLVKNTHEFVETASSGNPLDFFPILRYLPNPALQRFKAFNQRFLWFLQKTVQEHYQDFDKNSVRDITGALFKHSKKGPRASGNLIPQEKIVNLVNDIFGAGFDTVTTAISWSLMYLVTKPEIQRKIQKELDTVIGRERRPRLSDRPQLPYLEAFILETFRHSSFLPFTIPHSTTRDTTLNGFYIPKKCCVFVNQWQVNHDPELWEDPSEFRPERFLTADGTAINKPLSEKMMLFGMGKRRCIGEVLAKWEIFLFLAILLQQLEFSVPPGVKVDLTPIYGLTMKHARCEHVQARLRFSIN
Put plainly: CYP450 inhibition assay. The format is in vitro ADME. To be noted: in words. The procedure:
CYP450 Inhibition Assay. Assay was conducted using the commercially available Vivid CYP1A2 Screening Kit (Thermo Fisher) according to the manufacturer's protocol. α-napthoflavone and DMSO were used as a positive and negative control respectively based on the manufacturer's protocol.

A further data set can be described thus: Lipophilicity. The note with it: in words. Format: physicochemical.
The next data set in a line: Plasma stability assay. The format is in vitro ADME. To be noted: in words.
The subject of another data set is Saos-2. Kind of data set: Cell viability, telomerase-negative cells. To be noted: Saos-2, up to 100 μM. Format: cell-based.
Data set [2] deals with T2, telomerase in MCF7 cells in culture (Homo sapiens, UniProt O14746).
T2 construct: endogenous in cells; host or cells: MCF-7
T2 sequence (O14746 whole entry): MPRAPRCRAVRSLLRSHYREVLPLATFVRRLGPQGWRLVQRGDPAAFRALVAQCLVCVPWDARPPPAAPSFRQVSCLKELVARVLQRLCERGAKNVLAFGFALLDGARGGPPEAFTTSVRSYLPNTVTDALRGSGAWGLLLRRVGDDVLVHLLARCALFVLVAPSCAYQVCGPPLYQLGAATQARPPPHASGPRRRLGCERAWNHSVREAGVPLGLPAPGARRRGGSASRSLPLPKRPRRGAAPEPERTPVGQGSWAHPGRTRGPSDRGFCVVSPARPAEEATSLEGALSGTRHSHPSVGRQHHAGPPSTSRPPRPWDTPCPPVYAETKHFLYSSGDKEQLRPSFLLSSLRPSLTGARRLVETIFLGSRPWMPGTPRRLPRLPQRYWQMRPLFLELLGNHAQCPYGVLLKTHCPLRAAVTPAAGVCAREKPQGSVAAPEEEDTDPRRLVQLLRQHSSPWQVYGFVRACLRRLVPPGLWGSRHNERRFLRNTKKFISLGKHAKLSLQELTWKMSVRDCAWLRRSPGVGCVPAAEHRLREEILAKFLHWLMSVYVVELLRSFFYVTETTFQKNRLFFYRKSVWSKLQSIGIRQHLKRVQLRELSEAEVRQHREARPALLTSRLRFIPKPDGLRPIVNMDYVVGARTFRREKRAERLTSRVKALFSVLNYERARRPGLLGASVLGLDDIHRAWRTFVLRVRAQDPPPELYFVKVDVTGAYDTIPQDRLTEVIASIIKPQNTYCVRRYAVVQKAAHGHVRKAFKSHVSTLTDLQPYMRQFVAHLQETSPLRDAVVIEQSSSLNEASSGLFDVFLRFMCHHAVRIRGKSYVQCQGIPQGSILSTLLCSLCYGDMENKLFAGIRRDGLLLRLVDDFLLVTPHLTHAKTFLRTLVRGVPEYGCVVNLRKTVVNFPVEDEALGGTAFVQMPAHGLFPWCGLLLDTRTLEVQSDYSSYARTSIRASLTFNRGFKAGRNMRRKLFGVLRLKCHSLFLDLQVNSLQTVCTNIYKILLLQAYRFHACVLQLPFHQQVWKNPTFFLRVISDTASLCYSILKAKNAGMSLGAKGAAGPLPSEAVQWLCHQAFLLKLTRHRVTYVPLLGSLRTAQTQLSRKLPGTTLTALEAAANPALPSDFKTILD
T2 sequence (O60832 whole entry partner): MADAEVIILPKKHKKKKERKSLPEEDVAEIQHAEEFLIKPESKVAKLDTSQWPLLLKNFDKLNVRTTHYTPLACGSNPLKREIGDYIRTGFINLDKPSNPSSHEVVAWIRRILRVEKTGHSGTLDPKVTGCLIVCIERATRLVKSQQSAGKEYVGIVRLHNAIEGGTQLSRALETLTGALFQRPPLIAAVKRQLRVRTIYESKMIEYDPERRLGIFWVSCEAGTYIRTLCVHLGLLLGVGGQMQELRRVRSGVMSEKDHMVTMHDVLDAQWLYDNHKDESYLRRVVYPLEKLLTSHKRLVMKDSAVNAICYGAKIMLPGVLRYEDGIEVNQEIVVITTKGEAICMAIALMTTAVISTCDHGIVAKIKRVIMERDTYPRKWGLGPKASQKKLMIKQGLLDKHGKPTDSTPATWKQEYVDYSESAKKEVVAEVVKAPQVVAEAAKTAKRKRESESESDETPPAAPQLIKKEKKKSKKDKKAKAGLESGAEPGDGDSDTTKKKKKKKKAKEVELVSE
T2 sequence (Q9NPE3 whole entry partner): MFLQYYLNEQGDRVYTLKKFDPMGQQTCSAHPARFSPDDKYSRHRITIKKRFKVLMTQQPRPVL
T2 sequence (Q9NX24 whole entry partner): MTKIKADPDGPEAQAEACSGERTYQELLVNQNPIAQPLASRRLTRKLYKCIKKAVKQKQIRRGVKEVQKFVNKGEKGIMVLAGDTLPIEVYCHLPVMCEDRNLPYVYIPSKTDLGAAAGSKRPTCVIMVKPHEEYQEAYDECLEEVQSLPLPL
T2 sequence (Q9NY12 whole entry partner): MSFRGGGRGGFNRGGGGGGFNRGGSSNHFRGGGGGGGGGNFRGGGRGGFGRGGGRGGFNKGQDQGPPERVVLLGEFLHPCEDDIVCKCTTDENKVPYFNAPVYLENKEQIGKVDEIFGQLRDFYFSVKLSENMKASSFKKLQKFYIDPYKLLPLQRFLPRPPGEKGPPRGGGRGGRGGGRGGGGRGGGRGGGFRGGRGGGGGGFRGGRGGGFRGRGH
T2 sequence (Q9BUR4 whole entry partner): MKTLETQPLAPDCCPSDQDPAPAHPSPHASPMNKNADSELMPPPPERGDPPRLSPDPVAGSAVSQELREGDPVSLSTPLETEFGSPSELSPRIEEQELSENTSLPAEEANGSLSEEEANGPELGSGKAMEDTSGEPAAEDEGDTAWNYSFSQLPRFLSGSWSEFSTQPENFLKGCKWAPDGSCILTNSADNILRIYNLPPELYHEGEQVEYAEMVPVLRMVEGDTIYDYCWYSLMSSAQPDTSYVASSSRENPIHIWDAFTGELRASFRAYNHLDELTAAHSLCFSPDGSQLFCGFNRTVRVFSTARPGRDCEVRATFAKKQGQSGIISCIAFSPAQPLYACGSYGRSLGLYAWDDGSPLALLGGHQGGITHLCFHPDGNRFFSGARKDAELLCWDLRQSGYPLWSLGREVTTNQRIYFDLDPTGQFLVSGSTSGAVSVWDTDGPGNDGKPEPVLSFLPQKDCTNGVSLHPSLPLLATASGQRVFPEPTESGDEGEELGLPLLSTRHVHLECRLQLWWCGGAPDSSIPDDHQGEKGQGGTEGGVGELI
Put plainly: TRAP assay in cultured cells. Format: cell-based. To be noted: TRAP assay, MCF7 cells in culture. The procedure:
Telomeric Repeat Amplification Protocol Assay. The telomeric repeat amplification protocol (TRAP) assay was performed using the TRAPeze RT Telomerase Detection Kit (EMD Millipore) and iTaq DNA polymerase (Bio-Rad) according to the manufacturer's protocol.
Cultured Cells TRAP Analysis. MCF-7, HeLa, ACHN, MDA-MB231 and A549 cells were cultured in DMEM media supplemented with 10% Fetal Bovine Serum (FBS), 1% pen/strep and with 5% CO2 and 37° C. Cells were plated in 96 well plates and allowed to attach for 24 h. Media was removed, and fresh media containing various concentrations of compound was added, and the plate was incubated for 24 h. […] The cell extract was then centrifuged at 12,000×g for 20 min at 4° C. to remove cell debris. Note: “fresh” media constitutes media supplemented with 10% Fetal Bovine Serum (FBS) and 1% pen/strep that has not been previously used for cell culture (e.g., not conditioned media). TRAP analysis was conducted as above.

Another data set has as its system MCF-7 cells. Put plainly: Compound washout cell viability. The format is cell-based, human. The note with it: washed, fresh media, 24 h. The procedure: Compound Washout Cell Viability Measurements. MCF-7 cells were plated in 96 well plates and allowed to attach for 24 h. Media was removed, and fresh media containing various concentrations of compound was added, and the plate was incubated for 24 h. Media was removed, cells were washed 2 times with PBS, and fresh media without compound was added. Cells were incubated at 37° C. for an additional “X” h and analyzed as above. Note: “fresh” media constitutes media supplemented with 10% Fetal Bovine Serum (FBS) and 1% pen/strep that has not been previously used for cell culture (e.g., not conditioned media).

Another data set has as its system MCF7 cells. Put plainly: Cell viability (CellTiter-Glo), telomerase-positive cells. Format: cell-based, human. To be noted: Homo sapiens, read-out: IC50, loss of viability. The procedure: Cell Viability Measurements. MCF-7, HeLa, MDA-MB231 and A549 cells were cultured in DMEM media supplemented with 10% Fetal Bovine Serum (FBS), 1% pen/strep and with 5% CO2 and 37° C. Cells were plated in 96 well plates and allowed to attach for 24 h. Media was removed, and fresh media containing various concentrations of compound was added, and the plate was incubated for 24 h. The plate was removed from the incubator and allowed to equilibrate to room temperature for 30 min. 50 μl of freshly prepared CellTiter-Glo (Promega) reagent was added, and the plate was mixed on an orbital shaker for 10 min to induce cell lysis and stabilize luminescent signal. The luminescence was recorded on a PerkinElmer Enspire multimode plate reader.
Background: Cellular ATP, detected with luciferase, serves as a proxy for viable cell number.

For a further data set, the system named is tcTERT. Put plainly: Protease digestion and mass spectrometry of treated tcTERT. The note with it: proteolysis and tandem mass spectrometry. The format is binding, Tribolium castaneum. The procedure:
Protease Digestion and Mass Spectrometry Analysis. tcTERT (50 μg, ˜600 pmol) was treated with chrolactomycin, NU-1, helenalin, costunolide or DMSO for 1 hr at 37° C. The reaction was diluted with ammonium bicarbonate buffer (pH 8.0), then reduced for 30 min at 56° C. with 10 mM DTT. After cooling to 23° C., the protein was alkylated with 25 mM iodoacetamide for 30 min at 23° C. in the dark, followed by trypsin digestion (2.5 μg, Promega) overnight at 37° C. Digested peptides (˜2 pmol) were injected onto a self-packed precolumn (4 cm POROS10R2) and eluted into the mass spectrometer (LTQ Orbitrap Velos, Thermo Fisher). Peptides were subjected to MS^2 by CAD (electron multiplier detection, relative collision energy 35%, q=0.25).

A short description of data set [3]: N-acetyl serine and N-acetyl lysine reactivity. To be noted: HPLC. The format is physicochemical. The procedure: (§1) N-Acetyl Cysteine, N-Acetyl Lysine and N-Acetyl Serine Kinetic Studies. Assay was conducted as described with minor modifications.^81-84 Briefly, a 1 mM stock solution of NU-1 with internal standard (phenacetin) in DMSO was added to a 50 mM solution of either N-acetyl cysteine, N-acetyl lysine or N-acetyl serine in 67 mM phosphate buffer (pH 7.4), as well as added to a solution of 67 mM phosphate buffer (pH 7.4) control. Samples were taken every 2 min for 2 h and quenched immediately with MeOH and centrifuged upon sampling. Samples were placed on a Waters Acquity UPLC-MS system and measured for the ratio of NU-1 to internal standard intensity to calculate the amount of NU-1 present at each time point relative to the amount of NU-1 at the first injection of the compound in buffer. Assay was conducted in triplicate.

The subject of another data set is N-acetyl cysteine (NAC). Put plainly: physchem. The note with it: pH 7.4. The format is physicochemical. The procedure:
as §1

As a reminder, the IC50 is the concentration that gives 50% inhibition. What is called half-life is the time in which the quantity being followed falls by half. A lower half-life goes with rapid decline.

In the case of `C=C1C(=O)[C@](C)(C(=O)OC)[C@H](CCc2cn(Cc3ccc(F)cc3F)nn2)O[C@@H]1C` [NU-1, methyl (2S,3R,6R)-2-(2-(1-(2,4-difluorobenzyl)-1H-1,2,3-triazol-4-yl)ethyl)-3,6-dimethyl-5 methylene-4-oxotetrahydro-2H-pyran-3-carboxylate], in data set [1], the ketone-Schiff base formation result was “no ketone-Schiff base formation”. Further, the CYP450 inhibition profile result at CYP1A2 was “favorable”. In addition, in the data set “Lipophilicity”, the lipophilicity entry is reported as “favorable”. The plasma stability entry in the data set “Plasma stability assay” is reported as “satisfactory performance”. The effect on viability entry in the data set on Saos-2 is listed as “did not affect viability”. The results for the IC50 (in data set [2]; with MCF7 cells) were 0.27 µM and 27 µM, respectively. Further, in the data set on MCF-7 cells, the viability after washout result is “did not restore”. The “adduct formation with tcTERT peptides” value in the data set on tcTERT is listed as “single modified peptide”. In data set [3], the amino acid adducts entry is given as “No amino acid adducts were found”. Further, in the data set on N-acetyl cysteine (NAC), the half-life at 1 μM came out at 42 min.
